# Source: ChEMBL document CHEMBL1131358, “An approach to use an unusual adenosine transporter to selectively deliver polyamine analogues to trypanosomes” (Bioorg Med Chem Lett, 1998)
# Experiments:
# Trypanosoma brucei [1] = test: Inhibitory activity against adenosine uptake through P2 adenosine transporter of blood stream Trypanosoma brucei trypomastigotes at the concentration 10 ug/mL
# [2] = test system: Trypanosoma brucei brucei; test: In vitro activity against Trypanosoma brucei trypomastigotes form; format: functional, organism-based
# Trypanosoma brucei [3] = test: Inhibitory activity against adenosine uptake through P2 adenosine transporter of blood stream Trypanosoma brucei trypomastigotes at the concentration 1 ug/mL
# Trypanosoma brucei [4] = test: Inhibitory activity against adenosine uptake through P2 adenosine transporter of blood stream Trypanosoma brucei trypomastigotes at the concentration 100 ug/mL
# [5] = test system: Trypanosoma brucei brucei; test: In vitro activity against bloodstream from trypomastigotes.; format: functional, organism-based
inhibition (Trypanosoma brucei [1]) [%],IC50 [2] [µM],inhibition (Trypanosoma brucei [3]) [%],inhibition (Trypanosoma brucei [4]) [%],IC50 [5] [µM],SMILES
5,> 200,7,61,,NCCCCN(CCCN)CCCNc1nc(N)nc(N)n1
47,> 270,29,73,,NCCCCN(CCCN)c1nc(N)nc(N)n1
84,,67,99,0.003,N=C(N)c1ccc(/N=N/Nc2ccc(C(=N)N)cc2)cc1 [DIMINAZENE]
89,,88,99,,Nc1[nH]cnc2ncnc1-2
44,12,24,60,,NCCCNCCCCN(CCCN)c1nc(N)nc(N)n1

# Further lines, the compound ahead of its results:
SMILES,inhibition (Trypanosoma brucei [1]) [%],IC50 [2] [µM],inhibition (Trypanosoma brucei [3]) [%],inhibition (Trypanosoma brucei [4]) [%],IC50 [5] [µM]
NCCCNCCCCN(CCCN)CCCNc1nc(N)nc(N)n1,17,24,2,37,
Nc1nc(N)nc(NCCCNCCCNCCCCCCCNCCCNCCCNc2nc(N)nc(N)n2)n1,18,,0,88,24
NCCCNCCCCCCCNCCCNc1nc(N)nc(N)n1,32,,12,77,21
Nc1nc(N)nc(NCCCNCCCCCCCNCCCNc2nc(N)nc(N)n2)n1,63,,36,93,110
